Tests used:
[1] = test system: osteoarthritis-induced New Zealand white rabbits; test: Total joint synovial fluid volume (Arsenazo III) in osteoarthritis-induced rabbits; format: in vivo
Excerpt: (§1) To prepare an osteoarthritis animal model, New Zealand white rabbits underwent anterior cruciate ligament transection (ACLT) in joints of their two hind legs. After three days, the rabbits were forced to sustain movement for four weeks in a space of 5×5 m^3 to induce substantial osteoarthritis. […] The following Examples 3 to 10 were all performed using joints of the osteoarthritis-induced New Zealand white rabbits prepared as in this Example 2.
Typically, synovial fluid volume increases with inflammation as osteoarthritis progresses. […] The supernatants were used in this test.
Since synovial fluid volume has been reported to change according to the progress of osteoarthritis, total synovial fluid volume was measured to investigate changes in synovial fluids according to osteoarthritis induction and drug treatment. Synovial fluid volume was determined by measuring Ca^2+ concentrations in synovial fluids using an Arsenazo III complexion method (Michaylova V. et al., Anal. Chim. Acta, 53:194 (1971)). Total synovial fluid volume was calculated using a Donnan equilibrium equation. 0.01 ml of a synovial fluid was mixed with 1 ml of an Arsenazo III reagent (588-3, Sigma) and allowed to stand at room temperature for 5 min. Absorbance was measured at 600 nm using a spectrophotometer (DU650, Beckman).

[2] = test system: osteoarthritis-induced New Zealand white rabbits; test: Proteoglycan levels in joint synovial fluids (1,9-dimethylmethylene blue assay); format: in vivo
Excerpt: as §1
In the joint synovial fluids prepared in Example 3, proteoglycan levels were measured using a 1,9-dimethylmethylene blue assay (Houselmann H. J. et al., Am. J. Physiol. 271:C742-752, (1996)). A synovial fluid sample of 50 μl was mixed with 250 μl of 1,9-dimethylmethylene blue (34,108-8, Aldrich), and absorbance was measured at 530 nm using a spectrophotometer (Power Wave X340, Bio-Tek).

[3] = test system: osteoarthritis-induced New Zealand white rabbits; test: Total protein levels in joint synovial fluids (Bradford); format: in vivo
Excerpt: as §1
As cartilage is destroyed with the progress of osteoarthritis, proteins contained therein are released into synovial fluids. With this respect, total protein levels were measured in synovial fluids. Using the joint synovial fluids prepared in Example 3, total protein levels in synovial fluids were measured using a Bradford method. 50 μl of a synovial fluid was mixed with 200 μl of a protein analysis reagent (500-0006, Bio-Rad) and allowed to stand at room temperature for 5 min, and absorbance was then measured at 595 nm.

[4] = test system: osteoarthritis-induced New Zealand white rabbits; test: Prostaglandin E2 levels in joint synovial fluids (EIA); format: in vivo
Excerpt: as §1
Using the joint synovial fluids prepared in Example 3, prostaglandin E2 (PGE2) levels in synovial fluids were measured using an enzyme immunoassay (EIA) kit (DE0100, R&D Systems). 100 μl of a 1:10 dilution of a synovial fluid sample was mixed with 50 μl of a conjugate and 50 μl of an antibody in a plate provided in the kit, and was incubated with agitation at room temperature for two hours. Then, the plate was washed with a washing buffer, and 200 μl of a pNPP solution was added thereto, followed by incubation at room temperature for one hour. Thereafter, absorbance was measured at 405 nm.

[5] = test system: osteoarthritis-induced New Zealand white rabbits; test: Mankin's scoring of joints; format: in vivo; details: after osteoarthritis induction, scale 0 to 14; control group 12.5
Procedure: In histological tests, degenerative changes, such as structural changes of cartilage, cell number changes in cartilage and surface staining distribution by cartilage staining with a dye, were evaluated according to a standard scoring system for the progress of osteoarthritis, Mankin's scoring (Mankin, H. J. et al., Orthopedic Clinics of North America, 2:19-30 (1971)). In the present invention, blind tests were performed by two inspectors according to the Mankin's criteria.
To prepare an osteoarthritis animal model, New Zealand white rabbits underwent anterior cruciate ligament transection (ACLT) in joints of their two hind legs. After three days, the rabbits were forced to sustain movement for four weeks in a space of 5×5 m^3 to induce substantial osteoarthritis. […]
30-mm synovial tissues were sectioned from the medial parapatella synovium of knee joints of experimental animals, fixed with 10% […] (F0507, Sigma) for over 24 hrs, and embedded in paraffin to make 4-mm paraffin blocks. […] Mankin's scoring was performed by blind tests carried out by two inspectors, and Mankin scores were determined according to the degree of degenerative progress and ranged from 0 (normal in all items) to a maximum score of 14, thus calculating a degenerative change index.

[6] = test system: osteoarthritis-induced New Zealand white rabbits; test: Distribution and number of synovial cells; format: in vivo
Procedure: as §1
Tissues were prepared according to the same method as in Example 9 and evaluated for cell number and the condition of their surfaces. Cell number was measured at a site 120 μm in depth.

[7] = test system: cancer cells; details: background statement; cited from earlier work
[8] = non-treated left leg (−) of apigenin treatment group, four weeks after drug injection
[9] = non-treated left leg (−) of apigenin treatment group, four weeks after drug injection, listed as Apigenin
[10] = non-treated left leg (−) of apigenin treatment group, two weeks after drug injection
[11] = apigenin-treated right leg (+), four weeks after drug injection
[12] = apigenin-treated right leg (+), four weeks after drug injection, listed as Apigenin
[13] = apigenin-treated right leg (+), two weeks after drug injection

O=c1cc(-c2ccc(O)cc2)oc2cc(O)cc(O)c12 [apigenin, 4′,5,7-trihydroxyflavone]
Total synovial fluid volume ([1]; apigenin-treated right leg (+), 50 μg once per week, four weeks after drug injection): about 1.16 ml | Total synovial fluid volume ([1]; apigenin-treated right leg (+), 50 μg once per week, four weeks after drug injection, listed as Apigenin): 1.16 ± 0.03 mL | Total synovial fluid volume ([1]; apigenin-treated right leg (+), 50 μg once per week, two weeks after drug injection): 1.13 ± 0.08 mL | Total synovial fluid volume [1, 8]: about 1.58 ml | Total synovial fluid volume [1, 9]: 1.58 ± 0.24 mL | Total synovial fluid volume [1, 10]: 1.17 ± 0.08 mL | Proteoglycan levels in joint synovial fluids [2, 11]: about 12.22 μg/ml | Proteoglycan levels in joint synovial fluids [2, 12]: 12.22 ± 0.4 µg/mL | Proteoglycan levels in joint synovial fluids [2, 13]: 10.32 ± 0.66 µg/mL | Proteoglycan levels in joint synovial fluids [2, 8]: 34.09 ± 0.24 µg/mL | Proteoglycan levels in joint synovial fluids [2, 10]: 22.90 ± 0.86 µg/mL | Total protein levels in joint synovial fluids [3, 11]: about 24.91 mg/ml | Total protein levels in joint synovial fluids [3, 12]: 24.91 ± 0.35 mg/mL | Total protein levels in joint synovial fluids [3, 13]: 16.64 ± 0.3 mg/mL | Total protein levels in joint synovial fluids [3, 8]: 36.37 ± 0. mg/ml | Total protein levels in joint synovial fluids [3, 10]: 20.36 ± 0.69 mg/mL | PGE2 levels in joint synovial fluids [4, 11]: about 196.71 pg/ml | PGE2 levels in joint synovial fluids [4, 12]: 196.71 ± 0.52 pg/mL | PGE2 levels in joint synovial fluids [4, 13]: 183.26 ± 0.2 pg/mL | PGE2 levels in joint synovial fluids [4, 8]: about 753.2 pg/ml | PGE2 levels in joint synovial fluids [4, 9]: 509.2 ± 9.2 pg/mL | PGE2 levels in joint synovial fluids [4, 10]: 543.3 ± 1.13 pg/mL | Mankin score (mean) [5]: 6.6 | decrease in synovial cell number compared to the control group ([6]; after osteoarthritis induction): about 34.5% | number of synovial cells ([6]; after osteoarthritis induction, measured at a site 120 μm in depth, control group 632.3): 406.6 | surface of synovial membrane section ([6]; right leg, compared with control group treated with physiological saline): relatively smooth surface | concentration at which apigenin acts effectively (anticancer activity) [7]: lower than 50 μM
